Experimental data: PMC10924921, “Mi-2β promotes immune evasion in melanoma by activating EZH2 methylation” (Nature Communications, 2024)

Experiments:
Experiment in all cases: biochemical
Set-up in all cases: KINOMEscan active-site competition binding panel (468 kinase assays), per cent of control at 1000 nM
Details in all cases: KINOMEscan per cent of control (binding competition); read-out: Percent Control
[1] = molecular target: WNK4 (Homo sapiens, UniProt Q96J92)
Source text: (§1) Figure S7 / Percent Control

[2] = molecular target: EGFR(L747-S752del, P753S) (Homo sapiens, UniProt P00533, DEL747-752/P753S)
Chain of EGFR(L747-S752del, P753S) (P00533 with tags, fused parts or gaps DEL747-752/P753S): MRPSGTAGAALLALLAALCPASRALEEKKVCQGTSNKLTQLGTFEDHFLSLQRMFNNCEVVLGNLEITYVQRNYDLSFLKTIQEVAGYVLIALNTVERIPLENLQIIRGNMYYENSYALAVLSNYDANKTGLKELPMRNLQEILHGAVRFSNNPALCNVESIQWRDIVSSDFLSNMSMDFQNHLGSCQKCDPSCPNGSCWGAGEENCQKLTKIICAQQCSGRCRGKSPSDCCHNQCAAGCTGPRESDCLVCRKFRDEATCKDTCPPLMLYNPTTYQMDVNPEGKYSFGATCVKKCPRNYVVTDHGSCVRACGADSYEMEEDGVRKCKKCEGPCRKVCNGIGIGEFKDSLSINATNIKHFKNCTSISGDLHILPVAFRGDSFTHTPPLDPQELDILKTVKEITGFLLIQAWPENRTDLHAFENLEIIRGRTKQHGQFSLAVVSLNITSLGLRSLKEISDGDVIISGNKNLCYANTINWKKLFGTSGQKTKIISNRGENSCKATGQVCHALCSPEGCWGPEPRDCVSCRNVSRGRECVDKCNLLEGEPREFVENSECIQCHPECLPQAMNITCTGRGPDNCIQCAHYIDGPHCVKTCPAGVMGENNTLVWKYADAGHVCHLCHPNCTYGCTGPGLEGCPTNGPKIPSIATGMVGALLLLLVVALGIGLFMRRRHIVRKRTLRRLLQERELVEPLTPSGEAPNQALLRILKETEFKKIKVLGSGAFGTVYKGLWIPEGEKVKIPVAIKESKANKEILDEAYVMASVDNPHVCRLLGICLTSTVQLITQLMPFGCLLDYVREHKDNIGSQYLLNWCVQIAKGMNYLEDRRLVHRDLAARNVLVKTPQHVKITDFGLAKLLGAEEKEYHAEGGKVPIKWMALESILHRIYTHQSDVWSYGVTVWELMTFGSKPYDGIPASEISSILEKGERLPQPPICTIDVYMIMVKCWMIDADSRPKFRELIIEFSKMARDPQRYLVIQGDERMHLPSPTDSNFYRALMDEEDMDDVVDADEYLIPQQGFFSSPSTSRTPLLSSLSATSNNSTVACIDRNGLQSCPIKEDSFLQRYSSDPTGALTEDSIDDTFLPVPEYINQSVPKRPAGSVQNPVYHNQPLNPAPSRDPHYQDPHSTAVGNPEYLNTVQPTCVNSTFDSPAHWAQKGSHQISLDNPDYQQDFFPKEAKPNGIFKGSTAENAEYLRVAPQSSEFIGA
Source text: as §1

[3] = molecular target: SGK2 (Homo sapiens, UniProt Q9HBY8)
Source text: as §1

[4] = molecular target: EPHB6 (Homo sapiens, UniProt O15197)
Source text: as §1

[5] = molecular target: BMPR1B (Homo sapiens, UniProt O00238)
Source text: as §1

[6] = molecular target: PIK3CA (Homo sapiens, UniProt P42336)
Source text: as §1

[7] = molecular target: T1, ASK2 (Homo sapiens, UniProt O95382)
T1 construct: gene MAP3K6
Source text: as §1

[8] = molecular target: CSNK2A1 (Homo sapiens, UniProt P68400)
Source text: as §1

[9] = molecular target: FLT3(R834Q) (Homo sapiens, UniProt P36888, R834Q)
Source text: as §1

[10] = molecular target: T2, CDC2L1 (Homo sapiens, UniProt P21127)
T2 construct: gene CDK11B
Source text: as §1

[11] = molecular target: T3, BIKE (Homo sapiens, UniProt Q9NSY1)
T3 construct: gene BMP2K
T3 sequence (Q9NSY1 whole entry): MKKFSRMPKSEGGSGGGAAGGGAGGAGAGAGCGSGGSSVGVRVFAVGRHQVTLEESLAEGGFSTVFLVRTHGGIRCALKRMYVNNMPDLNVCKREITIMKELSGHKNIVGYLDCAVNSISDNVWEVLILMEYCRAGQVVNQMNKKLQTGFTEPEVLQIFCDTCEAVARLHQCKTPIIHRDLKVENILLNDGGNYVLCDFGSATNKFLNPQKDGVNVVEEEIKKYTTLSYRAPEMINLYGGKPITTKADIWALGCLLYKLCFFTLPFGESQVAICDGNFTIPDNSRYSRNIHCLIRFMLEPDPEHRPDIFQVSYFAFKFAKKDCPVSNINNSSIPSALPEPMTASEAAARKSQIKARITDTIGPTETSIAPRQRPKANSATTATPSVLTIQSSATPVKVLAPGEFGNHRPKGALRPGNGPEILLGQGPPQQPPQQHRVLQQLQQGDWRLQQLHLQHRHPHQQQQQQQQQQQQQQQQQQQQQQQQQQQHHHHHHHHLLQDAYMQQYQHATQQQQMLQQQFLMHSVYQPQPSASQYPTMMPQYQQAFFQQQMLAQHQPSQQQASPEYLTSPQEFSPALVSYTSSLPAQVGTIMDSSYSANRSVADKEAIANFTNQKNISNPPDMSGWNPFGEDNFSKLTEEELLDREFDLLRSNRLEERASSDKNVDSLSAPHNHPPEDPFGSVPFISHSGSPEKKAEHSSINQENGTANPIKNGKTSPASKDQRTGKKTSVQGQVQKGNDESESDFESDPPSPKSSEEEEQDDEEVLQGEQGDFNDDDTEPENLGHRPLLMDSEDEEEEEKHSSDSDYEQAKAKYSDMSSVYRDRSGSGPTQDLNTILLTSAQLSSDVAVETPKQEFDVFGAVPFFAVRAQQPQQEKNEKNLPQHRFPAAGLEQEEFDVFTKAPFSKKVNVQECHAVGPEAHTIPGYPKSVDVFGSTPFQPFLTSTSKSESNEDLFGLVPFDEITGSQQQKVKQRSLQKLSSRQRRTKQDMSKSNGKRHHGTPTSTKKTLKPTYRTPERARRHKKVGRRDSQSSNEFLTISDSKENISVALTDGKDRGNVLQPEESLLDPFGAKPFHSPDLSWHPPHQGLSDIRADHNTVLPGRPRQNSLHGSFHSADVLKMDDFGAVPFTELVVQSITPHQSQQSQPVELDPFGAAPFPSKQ
Source text: as §1

[12] = molecular target: FLT4 (Homo sapiens, UniProt P35916)
Chain of FLT4 (P35916 whole entry): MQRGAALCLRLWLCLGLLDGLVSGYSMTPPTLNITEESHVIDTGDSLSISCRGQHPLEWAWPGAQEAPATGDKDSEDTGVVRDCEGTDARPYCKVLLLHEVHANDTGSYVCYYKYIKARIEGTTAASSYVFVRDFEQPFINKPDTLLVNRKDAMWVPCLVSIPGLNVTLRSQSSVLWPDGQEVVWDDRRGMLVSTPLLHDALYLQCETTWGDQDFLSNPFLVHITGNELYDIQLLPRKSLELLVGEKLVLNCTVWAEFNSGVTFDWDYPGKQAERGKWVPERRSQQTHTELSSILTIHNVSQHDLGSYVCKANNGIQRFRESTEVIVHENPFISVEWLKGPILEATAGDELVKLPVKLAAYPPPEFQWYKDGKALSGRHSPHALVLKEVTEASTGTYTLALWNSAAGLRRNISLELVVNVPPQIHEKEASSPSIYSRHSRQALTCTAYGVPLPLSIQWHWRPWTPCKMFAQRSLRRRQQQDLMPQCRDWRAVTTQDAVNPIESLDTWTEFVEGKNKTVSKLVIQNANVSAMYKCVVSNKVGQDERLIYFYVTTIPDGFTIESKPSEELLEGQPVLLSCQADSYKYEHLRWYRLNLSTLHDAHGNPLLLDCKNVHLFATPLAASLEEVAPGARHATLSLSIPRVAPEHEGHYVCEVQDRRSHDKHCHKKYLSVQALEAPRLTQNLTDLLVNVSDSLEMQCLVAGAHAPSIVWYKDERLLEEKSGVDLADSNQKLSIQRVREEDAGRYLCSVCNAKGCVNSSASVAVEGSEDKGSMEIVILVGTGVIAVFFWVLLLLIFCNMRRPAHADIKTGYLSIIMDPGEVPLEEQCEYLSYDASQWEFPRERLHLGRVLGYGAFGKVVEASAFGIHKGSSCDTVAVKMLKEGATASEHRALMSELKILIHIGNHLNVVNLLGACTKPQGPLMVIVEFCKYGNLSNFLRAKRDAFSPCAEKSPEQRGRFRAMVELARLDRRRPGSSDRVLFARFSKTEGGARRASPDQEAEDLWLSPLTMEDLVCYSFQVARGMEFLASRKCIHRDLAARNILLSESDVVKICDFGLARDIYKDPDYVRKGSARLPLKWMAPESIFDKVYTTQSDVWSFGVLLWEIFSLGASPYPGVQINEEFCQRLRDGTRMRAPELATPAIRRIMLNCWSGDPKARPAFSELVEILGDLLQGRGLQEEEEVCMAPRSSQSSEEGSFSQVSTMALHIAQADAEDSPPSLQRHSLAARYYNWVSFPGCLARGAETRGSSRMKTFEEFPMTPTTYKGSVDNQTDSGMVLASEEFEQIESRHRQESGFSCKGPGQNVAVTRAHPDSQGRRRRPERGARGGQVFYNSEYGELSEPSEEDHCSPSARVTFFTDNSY
Source text: as §1

[13] = molecular target: MAP4K3 (Homo sapiens, UniProt Q8IVH8)
Source text: as §1

[14] = molecular target: CDKL2 (Homo sapiens, UniProt Q92772)
Source text: as §1

[15] = molecular target: T4, RSK1(Kin.Dom.2-C-terminal) (Homo sapiens, UniProt Q15418)
T4 construct: gene RPS6KA1; Kin.Dom.2-C-terminal
T4 sequence (Q15418 whole entry): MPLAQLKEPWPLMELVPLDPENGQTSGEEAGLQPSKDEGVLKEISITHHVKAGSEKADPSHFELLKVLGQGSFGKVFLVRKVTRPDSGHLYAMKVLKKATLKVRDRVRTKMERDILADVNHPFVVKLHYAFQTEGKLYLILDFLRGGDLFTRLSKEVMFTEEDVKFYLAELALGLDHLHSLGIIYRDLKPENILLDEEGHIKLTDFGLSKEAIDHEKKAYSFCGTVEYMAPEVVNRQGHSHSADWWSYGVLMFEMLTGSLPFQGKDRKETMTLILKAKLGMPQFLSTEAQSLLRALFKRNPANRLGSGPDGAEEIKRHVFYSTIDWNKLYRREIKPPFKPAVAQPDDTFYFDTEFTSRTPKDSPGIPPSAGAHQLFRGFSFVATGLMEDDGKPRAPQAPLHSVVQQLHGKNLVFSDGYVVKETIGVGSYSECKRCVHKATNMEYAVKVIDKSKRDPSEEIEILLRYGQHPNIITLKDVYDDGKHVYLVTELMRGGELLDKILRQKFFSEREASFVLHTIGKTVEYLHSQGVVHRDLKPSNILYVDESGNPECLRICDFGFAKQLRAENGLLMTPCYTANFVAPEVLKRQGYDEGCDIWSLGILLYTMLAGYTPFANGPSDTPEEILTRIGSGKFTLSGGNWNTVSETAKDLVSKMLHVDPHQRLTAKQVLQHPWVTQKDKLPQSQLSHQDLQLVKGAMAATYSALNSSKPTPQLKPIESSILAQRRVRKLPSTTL
Source text: as §1

[16] = molecular target: ACVR2A (Homo sapiens, UniProt P27037)
Source text: as §1

[17] = molecular target: CDK2 (Homo sapiens, UniProt P24941)
Source text: as §1

[18] = molecular target: T5, CAMK1B (Homo sapiens, UniProt Q6P2M8)
T5 construct: gene PNCK
Source text: as §1

[19] = molecular target: PIK3CB (Homo sapiens, UniProt P42338)
Source text: as §1

[20] = molecular target: ALK(C1156Y) (Homo sapiens, UniProt Q9UM73, C1156Y)
Source text: as §1

[21] = molecular target: MTOR (Homo sapiens, UniProt P42345)
Source text: as §1

[22] = molecular target: EGFR(L858R) (Homo sapiens, UniProt P00533, L858R)
Source text: as §1

[23] = molecular target: T6, SGK (Homo sapiens, UniProt O00141)
T6 construct: gene SGK1
Source text: as §1

[24] = molecular target: MAP3K2 (Homo sapiens, UniProt Q9Y2U5)
Chain of MAP3K2 (Q9Y2U5 whole entry): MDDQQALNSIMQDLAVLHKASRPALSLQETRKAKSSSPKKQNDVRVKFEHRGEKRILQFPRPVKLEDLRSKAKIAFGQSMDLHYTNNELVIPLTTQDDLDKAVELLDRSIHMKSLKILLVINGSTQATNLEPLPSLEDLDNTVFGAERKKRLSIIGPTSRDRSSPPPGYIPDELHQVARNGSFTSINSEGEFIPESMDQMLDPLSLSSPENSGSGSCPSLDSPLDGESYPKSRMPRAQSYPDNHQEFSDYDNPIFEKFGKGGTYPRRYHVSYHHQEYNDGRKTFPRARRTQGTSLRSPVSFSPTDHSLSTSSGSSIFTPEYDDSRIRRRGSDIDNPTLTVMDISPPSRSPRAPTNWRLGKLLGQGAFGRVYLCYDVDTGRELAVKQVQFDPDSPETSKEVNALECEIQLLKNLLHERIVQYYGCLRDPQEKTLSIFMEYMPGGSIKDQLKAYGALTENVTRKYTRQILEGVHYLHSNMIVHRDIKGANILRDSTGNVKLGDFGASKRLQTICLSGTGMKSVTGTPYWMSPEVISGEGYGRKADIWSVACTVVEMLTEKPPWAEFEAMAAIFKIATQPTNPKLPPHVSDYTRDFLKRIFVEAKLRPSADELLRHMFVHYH
Source text: as §1

Cn1c(=O)[nH]c2ccc(-c3cccc(C(=O)NC4CCn5ccnc5C4)c3)cc21 (stereo not drawn) [Z36-MP5]
remaining binding at 1 µM [1]: 81% | remaining binding at 1 µM [2]: 51% | remaining binding at 1 µM [3]: 64% | remaining binding at 1 µM [4]: 81% | remaining binding at 1 µM [5]: 55% | remaining binding at 1 µM [6]: 97% | remaining binding at 1 µM [7]: 93% | remaining binding at 1 µM [8]: 61% | remaining binding at 1 µM [9]: 40% | remaining binding at 1 µM [10]: 88% | remaining binding at 1 µM [11]: 100% | remaining binding at 1 µM [12]: 80% | remaining binding at 1 µM [13]: 51% | remaining binding at 1 µM [14]: 68% | remaining binding at 1 µM [15]: 98% | remaining binding at 1 µM [16]: 57% | remaining binding at 1 µM [17]: 91% | remaining binding at 1 µM [18]: 59% | remaining binding at 1 µM [19]: 71% | remaining binding at 1 µM [20]: 92% | remaining binding at 1 µM [21]: 87% | remaining binding at 1 µM [22]: 99% | remaining binding at 1 µM [23]: 68% | remaining binding at 1 µM [24]: 65%
